Experimental findings from US20090220445A1, “HAIR CARE COMPOSITIONS AND METHODS FOR INCREASING HAIR DIAMETER AND DELIVERING ADDITIONAL BENEFITS” (priority 2008, published 2009) are described below.

In this assay the test system is Primary human dermal papilla cells. In words: Synergy study: survival of metabolically stressed dermal papilla cells (ATP, Cell Titer Glo). In kind it is cell-based. The conditions noted are these: cells metabolically stressed 48 hours in reduced media, control 100% water. Here is the method: The dermal papilla, in normal human hair, is the control center for hair diameter. Increasing survival of dermal papilla cells in situ leads to increased hair diameter. Accordingly, an increase in survival of dermal papilla cells correlates with an increase in hair diameter.
Primary human dermal papilla cells were metabolically stressed for 48 hours in reduced standard tissue culture media. During this period of stress the cells were treated with the mixtures or individual ingredients below. After 48 hr the metabolic activity of the cells was measured by the amount of ATP using the Cell Titer Glo™ kit (Promega).
For orientation: In ATP-based viability assays light output follows the ATP content of the culture.

For the molecule `Cn1c(=O)c2c(ncn2C)n(C)c1=O` [Caffeine], the “Survival rate: % Change from Control” value (0.05%) is listed as “+41%”.
Turning to `NC(=O)c1cccnc1` [Niacinamide], the “Survival rate: % Change from Control” value (0.006%) is listed as −8%.
In the case of `CC(C)(CO)[C@@H](O)C(=O)NCCCO` [Panthenol], under “0.15%”, the “Survival rate: % Change from Control” value is “+6%”.
